Source: the NIST ThermoML archive (doi:10.1021/je0501484)

Assay: mn = molality of the nth substance listed, in mol/kg
Conditions: 101 kPa, Liquid

CCCCCC(=O)[O-].[Na+] [sodium hexanoate] + O
Conditions | mass density, m1 = 0.5 [kg/m3] | mass density, m1 = 1 [kg/m3] | mass density, m1 = 1.5 [kg/m3] | mass density, m1 = 2.177 [kg/m3] | viscosity, m1 = 0.5 [mPa·s] | viscosity, m1 = 1 [mPa·s] | viscosity, m1 = 1.5 [mPa·s] | viscosity, m1 = 2.177 [mPa·s]
298.15 K | 1014.4 | 1029.41 | 1041.88 | 1054.22 | 1.212 | 1.607 | 2.102 | 3.187
308.15 K | 1010.74 | 1024.96 | 1036.7 | 1048.72 | 0.956 | 1.24 | 1.601 | 2.402
